Test results reported in patent publication US20110263425A1, “HERBICIDAL COMPOSITION AND METHOD OF USE THEREOF” (SYNGENTA CROP PROTECTION, INC., priority 2007, published 2011).

Assays:
Parameters in all cases: key to Synergy (actual significantly higher than expected): *indicates synergy
Details in all cases: for Weed control, Actual: tank mixture
[1] = test system: large crabgrass; assay: Glasshouse trial, control of large crabgrass, mesotrione and atrazine applied pre-emergence; assay type: in vivo, Digitaria sanguinalis
Protocol: (§1) A glasshouse trial was carried out. Large crabgrass seeds were sown into standard glasshouse potting mix (1:1 v/v Promix:Vero sand soil) contained in 10 cm square plastic pots. Treatments were replicated three times. Mesotrione (in the form Callisto® 480SE) was applied post-emergence to large crabgrass (Digitaria sanguinalis) at either 12 g ai/ha or 24 g ai/ha with or without atrazine (in the form […]®. When used, atrazine was applied at a rate of 140 g ai/ha or 280 g ai/ha. The adjuvant system was X-77 at 0.1% v/v in deionised water. 200 litres of herbicide/adjuvant system was used per hectare. General weed control was evaluated at 7 and 14 days after treatment (DAT). It is noted that all herbicides were applied at reduced field rates because herbicide effects are magnified in a glasshouse environment. Rates were chosen to give a 50 to 70% level of control with herbicides applied alone as this allows for detection of any synergistic effect when tank mixtures are used. The results were evaluated using the Colby formula. The expected result for (A+B) is (A+B)-(A×B/100) where A and B are the 'observed' results for A and B on their own. […] A glasshouse trial was carried out as described in Example 1, but the herbicidal composition was applied pre-emergence, and higher rates of atrazine were used.

[2] = test system: white clover (Trifolium repens); assay: Glasshouse trial, control of white clover, mesotrione and atrazine applied post-emergence; assay type: in vivo
Protocol: [The source words this procedure for another organism and says it was used here with some conditions changed.] as §1, with “applied to white clover (Trifolium repens) instead of large crabgrass,” for “applied pre-emergence,”, “of mesotrione” for “of atrazine”

[3] = test system: large crabgrass (Digitaria sanguinalis); assay: Glasshouse trial, control of large crabgrass, mesotrione and atrazine applied post-emergence; assay type: in vivo
Protocol: A glasshouse trial was carried out. Large crabgrass seeds were sown into standard glasshouse potting mix (1:1 v/v Promix:Vero sand soil) contained in 10 cm square plastic pots. Treatments were replicated three times. Mesotrione (in the form Callisto® 480SE) was applied post-emergence to large crabgrass (Digitaria sanguinalis) at either 12 g ai/ha or 24 g ai/ha with or without atrazine (in the form […]®. When used, atrazine was applied at a rate of 140 g ai/ha or 280 g ai/ha. The adjuvant system was X-77 at 0.1% v/v in deionised water. 200 litres of herbicide/adjuvant system was used per hectare. General weed control was evaluated at 7 and 14 days after treatment (DAT). It is noted that all herbicides were applied at reduced field rates because herbicide effects are magnified in a glasshouse environment. Rates were chosen to give a 50 to 70% level of control with herbicides applied alone as this allows for detection of any synergistic effect when tank mixtures are used. The results were evaluated using the Colby formula. The expected result for (A+B) is (A+B)-(A×B/100) where A and B are the 'observed' results for A and B on their own.

[4] = atrazine 280 g ai/ha plus mesotrione at 12 g ai/ha
[5] = atrazine 280 g ai/ha plus mesotrione at 24 g ai/ha
[6] = atrazine 560 g ai/ha plus mesotrione at 12 g ai/ha
[7] = atrazine 560 g ai/ha plus mesotrione at 24 g ai/ha
[8] = atrazine 140 g ai/ha plus mesotrione at 50 g ai/ha
[9] = atrazine 140 g ai/ha plus mesotrione at 100 g ai/ha
[10] = atrazine 280 g ai/ha plus mesotrione at 50 g ai/ha
[11] = atrazine 280 g ai/ha plus mesotrione at 100 g ai/ha
[12] = atrazine 140 g ai/ha plus mesotrione at 12 g ai/ha
[13] = atrazine 140 g ai/ha plus mesotrione at 24 g ai/ha

For `CCNc1nc(Cl)nc(NC(C)C)n1` [Atrazine, 6-chloro-N-ethyl-N-isopropyl-1,3,5-triazine-2,4-diamine], the “Synergy (actual significantly higher than expected)” value [1, 4] was “*”, the “Weed control, Expected (Colby formula)” value [1, 4] was 68% and the “Weed control, Actual” value [1, 4] was 75%. For the same molecule, the “Weed control, Expected (Colby formula)” value [1, 5] was 97%, the “Weed control, Actual” value [1, 5] was 87% and the “Synergy (actual significantly higher than expected)” value [1, 6] was “*”. The “Weed control, Expected (Colby formula)” value [1, 6] was 60%, the “Weed control, Actual” value [1, 6] was 90% and the “Weed control, Expected (Colby formula)” value [1, 7] was 96%. The “Weed control, Actual” value [1, 7] was 98%, the “Weed control, Expected (Colby formula)” value [2, 8] was 58% and the “Weed control, Actual” value [2, 8] was 57%. The “Synergy (actual significantly higher than expected)” value [2, 9] was “*”, the “Weed control, Expected (Colby formula)” value [2, 9] was 68% and the “Weed control, Actual” value [2, 9] was 80%. The “Weed control, Expected (Colby formula)” value [2, 10] was 74%, the “Weed control, Actual” value [2, 10] was 73% and the “Synergy (actual significantly higher than expected)” value [2, 11] was “*”. The “Weed control, Expected (Colby formula)” value [2, 11] was 80%, the “Weed control, Actual” value [2, 11] was 88% and the “Synergy (actual significantly higher than expected)” value [3, 12] was “*”. The “Weed control, Expected (Colby formula)” value [3, 12] was 37%, the “Weed control, Actual” value [3, 12] was 48% and the “Synergy (actual significantly higher than expected)” value [3, 13] was “*”. For the same molecule, the “Weed control, Expected (Colby formula)” value [3, 13] was 68%, the “Weed control, Actual” value [3, 13] was 78% and the “Synergy (actual significantly higher than expected)” value [3, 4] was “*”. For the same molecule, the “Weed control, Expected (Colby formula)” value [3, 4] was 37%, the “Weed control, Actual” value [3, 4] was 62% and the “Synergy (actual significantly higher than expected)” value [3, 5] was “*”. For the same molecule, the “Weed control, Expected (Colby formula)” value [3, 5] was 68% and the “Weed control, Actual” value [3, 5] was 77%.
